In publication PMC8512562, “Semisynthetic Derivatives of Selected Amaryllidaceae Alkaloids as a New Class of Antimycobacterial Agents” (Molecules, 2021):
≈ marks a conversion by molar mass, not a printed value. Where two headings read alike, the source gives them in different places.

How the values were obtained:
[1] = tested on: Mycobacterium smegmatis DSM 43465 (ATCC 607); test: Antimycobacterial screening (microdilution broth, resazurin) against M. smegmatis; assay type: cell-based; conditions: Mycolicibacterium smegmatis, 48 h, read-out: MIC M. smegmatis
[2] = tested on: Mycobacterium aurum DSM 43999 (ATCC 23366); test: Antimycobacterial screening (microdilution broth, resazurin) against M. aurum; assay type: cell-based; conditions: Mycolicibacterium aurum, 72 h, read-out: MIC M. aurum
[3] = tested on: M. tuberculosis H37Ra, M. aurum and M. smegmatis; test: Antimycobacterial screening, MICs stated over all studied strains; assay type: cell-based, Mycobacterium; conditions: read-out: MICs against all studied strains
[4] = tested on: Mycobacterium tuberculosis H37Ra; test: Antimycobacterial screening (microdilution broth, resazurin) against M. tuberculosis H37Ra; assay type: cell-based; conditions: Mycobacterium tuberculosis
HepG2 cells = test: cells; assay type: cell-based, Human; conditions: for IC50: Homo sapiens, HepG2, MTT, 24 h incubation
[5] = range over M. tuberculosis H37Ra, M. aurum, M. smegmatis
[6] = H37RA, read-out: MIC Mtb H37Ra (µM)
[7] = M. tuberculosis H37Ra, resazurin added after 120 h, read-out: MIC Mtb H37Ra

With `CCCCc1ccc(C(=O)O[C@H]2C=C[C@@]34CCN(C)Cc5ccc(OC)c(c53)O[C@H]4C2)cc1` [1i, 6-O-(4-butylbenzoyl)galanthamine] the MIC [1] was 7.81 µg/mL (≈ 17.4 µM), the MIC [2] was 1.98 µg/mL (≈ 4.42 µM) and the MIC [3, 5] was 1.56 to 7.81 µg/mL. The MIC [4, 6] was 3.5 µM, the MIC [4, 7] was 1.56 µg/mL and the “SI (selectivity index)” value (HepG2 cells) was 4.20. It also gave an IC50 (HepG2 cells) of 14.7 ± 1.6 µM.
`CCOc1cc(OCC)cc(C(=O)O[C@H]2C=C[C@@]34CCN(C)Cc5ccc(OC)c(c53)O[C@H]4C2)c1` [1p, 6-O-(3,5-diethoxybenzoyl)galanthamine] gave an MIC [1] of 15.6 µg/mL (≈ 32.6 µM), an MIC [2] of 7.81 µg/mL (≈ 16.3 µM) and an MIC [3, 5] of 3.91 to 15.6 µg/mL. It also gave an MIC ([3]; range over the studied strains) of 7.6 to 30.2 µM, an MIC [4, 6] of 7.6 µM and an MIC [4, 7] of 3.91 µg/mL. For the same compound, the “SI (selectivity index)” value (HepG2 cells) was 2.64 and the IC50 (HepG2 cells) was 20.1 ± 2.1 µM.
Compound `COc1ccc2c3c1O[C@H]1C[C@@H](OC(=O)c4cccc5ccccc45)C=C[C@@]31CCN(C)C2` [1q, 6-O-(1-naphthoyl)galanthamine] has an MIC [1] of 7.81 µg/mL (≈ 17.7 µM), an MIC [2] of 7.81 µg/mL (≈ 17.7 µM) and an MIC [3, 5] of 6.25 to 7.81 µg/mL. The MIC [4, 6] was 13.1 µM, the MIC [4, 7] was 6.25 µg/mL and the “SI (selectivity index)” value (HepG2 cells) was 3.21. The IC50 (HepG2 cells) was 42.1 ± 4.1 µM.
With `COc1ccc2c3c1O[C@H]1C[C@@H](OC(=O)c4ccc5ccccc5c4)C=C[C@@]31CCN(C)C2` [1r, 6-O-(2-naphthoyl)galanthamine] the MIC [1] was 7.81 µg/mL (≈ 17.7 µM), the MIC [2] was 3.91 µg/mL (≈ 8.86 µM) and the MIC [3, 5] was 1.98 to 7.81 µg/mL. For the same compound, the MIC [4, 6] was 4.1 µM, the MIC [4, 7] was 1.98 µg/mL and the “SI (selectivity index)” value (HepG2 cells) was 5.17. For the same compound, the IC50 (HepG2 cells) was 21.2 ± 3.8 µM.
`COC1CC2C(=CC1OC(=O)c1cccc3ccccc13)C1CN2Cc2cc3c(cc21)OCO3` (stereo not shown) [3f, 2-O-(1-naphthoyl)-3-O-methylpancracine] showed an MIC [1] of 3.91 µg/mL (≈ 8.58 µM), an MIC [2] of 3.91 µg/mL (≈ 8.58 µM) and an MIC [3, 5] of 3.91 µg/mL. The MIC [4, 6] was 7.9 µM, the MIC [4, 7] was 3.91 µg/mL and the “SI (selectivity index)” value (HepG2 cells) was 3.51. It also gave an IC50 (HepG2 cells) of 27.7 ± 4.7 µM.
`O=C(O[C@@H]1C=C[C@]23CCN(Cc4cc5c(cc42)OCO5)[C@H]3C1)c1cccc2ccccc12` [4a, 3-O-(1-naphthoyl)vittatine] gave an MIC [1] of 7.81 µg/mL (≈ 18.4 µM), an MIC [2] of 3.91 µg/mL (≈ 9.19 µM) and an MIC [3, 5] of 3.91 to 7.81 µg/mL. For the same compound, the MIC [4, 6] was 8.5 µM, the MIC [4, 7] was 3.91 µg/mL and the “SI (selectivity index)” value (HepG2 cells) was 2.79. For the same compound, the IC50 (HepG2 cells) was 23.7 ± 2.2 µM.
`O=C(O[C@@H]1C=C[C@]23CCN(Cc4cc5c(cc42)OCO5)[C@H]3C1)c1ccc2ccccc2c1` [4b, 3-O-(2-naphthoyl)vittatine] was tested, and the MIC [1] was 7.81 µg/mL (≈ 18.4 µM), the MIC [2] was 3.91 µg/mL (≈ 9.19 µM) and the MIC [3, 5] was 3.91 to 7.81 µg/mL. For the same compound, the MIC [4, 6] was 8.5 µM, the MIC [4, 7] was 3.91 µg/mL and the “SI (selectivity index)” value (HepG2 cells) was 2.17. The IC50 (HepG2 cells) was 18.5 ± 2 µM.
In the case of `COc1cc2c(cc1OC)[C@@]13C=C[C@@H](OC(=O)c4cc(C)cc(C)c4)C[C@@H]1N(CC3)C2` [5a, 3-O-(3,5-dimethylbenzoyl)maritidine], the MIC [1] is reported as 15.6 µg/mL (≈ 37.2 µM), the MIC [2] is reported as 15.6 µg/mL (≈ 37.2 µM) and the MIC [3, 5] is reported as 3.91 to 15.6 µg/mL. For the same compound, the MIC [4, 6] was 8.6 µM, the MIC [4, 7] was 3.91 µg/mL and the “SI (selectivity index)” value (HepG2 cells) was 2.17. For the same compound, the IC50 (HepG2 cells) was 18.7 ± 2.7 µM.
`COc1cc2c(cc1OC)[C@@]13C=C[C@@H](OC(=O)c4cccc5ccccc45)C[C@@H]1N(CC3)C2` [5b, 3-O-(1-naphthoyl)maritidine] gave an MIC [1] of 15.6 µg/mL (≈ 35.4 µM), an MIC [2] of 7.81 µg/mL (≈ 17.7 µM) and an MIC [3, 5] of 3.91 to 15.6 µg/mL. The MIC [4, 6] was 16.3 µM, the MIC [4, 7] was 7.81 µg/mL and the “SI (selectivity index)” value (HepG2 cells) was 1.03. For the same compound, the IC50 (HepG2 cells) was 16.8 ± 7.1 µM.
